Test results as given in patent US20250268821A1 (AVALYN PHARMA INC., priority 2022, published 2025).
Like-named read-outs stand apart in the source and are kept apart here.

Key:
[1] = in vivo; cited from earlier work
[2] = Pirfenidone-nintedanib interaction: physical stability of nintedanib solution in 67 mM sodium chloride; format: physicochemical; conditions: 0.25 mg/mL nintedanib, about 67 mM sodium chloride
[3] = previously known; various salt forms; cited from earlier work
[4] = Clinical study in healthy volunteers: inhaled nebulized vs oral nintedanib (ELF and plasma pharmacokinetics, safety); format: in vivo; conditions: human
Excerpt: To characterize how dry powder nintedanib may perform in humans, a clinical study was first conducted comparing inhaled nebulized and oral nintedanib in healthy volunteers.

[5] = Sheep pharmacokinetics (ELF and plasma): nebulized inhaled nintedanib, fixed combination with pirfenidone, oral nintedanib; format: in vivo; conditions: for Cmax / AUC / half-life / Tmax: female, Merino cross-bred, sheep
Protocol: All animals had received standard vaccinations and were treated orally with anthelminthic (in line with standard management practices) prior to arrival at the animal facility to eliminate any worm parasites before experimentation. Experimental animals were rotated between indoor small group pen housing and metabolism cages under controlled ambient conditions (20-22° C.) and maintained on a 12 h light/dark throughout the experimental period. […] All formulations used in this study were stored at room temperature (RT) and protected from light prior to use; drugs were prepared on day of use. Sheep arrived into the facility as one group and were acclimatized over 2-3 weeks (group housing to indoor cage/pens) prior to experimentation. […] Group 1 sheep also received Treatment 1b, an addition/modification to the original study protocol. Treatments were administered over Weeks 3-9 of the study; each experimental Treatment was performed over a one week period in either Group 1 or Group 2 sheep (e.g., one group received Treatment while the other group was rested). Group 1 and Group 2 sheep were allocated separate sampling schedules for peripheral blood and bronchoalveolar lavage fluid (BALF) collections (Table 16). For nebulized aerosol drug administration to the lungs (inhalation dosing), a lubricated cuffed endotracheal (ET) tube (Portex, 7.0-8.0 mm internal diameter) was inserted via the nasal passage (guided by a fibre-optic endoscope) into the trachea. […] Respiration was set to 20 breaths/min, 50% inspiration and a tidal volume of 350 mL. Filters (Hudson RCl, NC, USA) were placed in the expiratory line to collect any expired drug dose. Following drug administration all lines, filters and nebulizer components were rinsed with 50 mL sterile saline to collect any remaining or expired dose. Washout sample aliquots (500 μl) were frozen on dry ice in 1.5 mL Eppendorf tubes, then stored at −80° C. prior to shipment for drug content analyses. Oral drug administration (Treatment 3) followed the procedure as detailed below (oral dosing optimization). A feeding tube (7 mm internal diameter) was inserted via the nasal passage (guided by a fibre-optic endoscope) into the upper region of the esophagus. […] Blood samples collected prior to and following drug administration (Table 16) were placed into K3EDTA-coated tubes. […] BALF samples were collected prior to and following drug administration ([…]). Sampling was carried out by intra-lung infusion of 25 ml of sterile saline via a catheter through the biopsy port of the bronchoscope, followed by immediate retrieval of the BALF sample into the collection syringe. BALF was collected from separate lung segments/lobes to avoid contamination between sampling time-points: the right apical lobe (RA) was used for all pre-dose sampling and post-dose samples were collected from right middle (RM); right caudal (RC); left caudal (LC); left middle (LM); and left apical (LA) lung lobes. BALF sampling details (volumes, exact time of collection) were recorded and samples immediately frozen on dry ice, then stored at −80° C. prior to shipment for drug content analyses.

Src = Src (Homo sapiens, UniProt P12931); conditions: cited from earlier work
Chain of Src (P12931 whole entry, species assumed): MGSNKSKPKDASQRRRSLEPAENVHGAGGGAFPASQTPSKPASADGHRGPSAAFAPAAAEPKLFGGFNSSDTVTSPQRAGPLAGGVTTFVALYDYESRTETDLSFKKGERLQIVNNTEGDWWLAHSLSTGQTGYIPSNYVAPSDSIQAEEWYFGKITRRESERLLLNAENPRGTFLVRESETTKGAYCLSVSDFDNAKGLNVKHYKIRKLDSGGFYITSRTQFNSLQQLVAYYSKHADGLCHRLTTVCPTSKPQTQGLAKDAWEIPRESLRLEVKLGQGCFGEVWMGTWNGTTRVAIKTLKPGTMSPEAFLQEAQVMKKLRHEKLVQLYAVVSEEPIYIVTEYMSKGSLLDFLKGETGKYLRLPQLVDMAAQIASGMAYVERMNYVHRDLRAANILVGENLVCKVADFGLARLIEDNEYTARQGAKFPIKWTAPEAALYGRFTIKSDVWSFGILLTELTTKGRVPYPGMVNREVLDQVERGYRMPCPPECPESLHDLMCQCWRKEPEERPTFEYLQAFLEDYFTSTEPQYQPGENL

Flt-3 = molecular target: T1, Flt-3 (Homo sapiens, UniProt P36888); conditions: cited from earlier work
T1 sequence (P36888 27-993): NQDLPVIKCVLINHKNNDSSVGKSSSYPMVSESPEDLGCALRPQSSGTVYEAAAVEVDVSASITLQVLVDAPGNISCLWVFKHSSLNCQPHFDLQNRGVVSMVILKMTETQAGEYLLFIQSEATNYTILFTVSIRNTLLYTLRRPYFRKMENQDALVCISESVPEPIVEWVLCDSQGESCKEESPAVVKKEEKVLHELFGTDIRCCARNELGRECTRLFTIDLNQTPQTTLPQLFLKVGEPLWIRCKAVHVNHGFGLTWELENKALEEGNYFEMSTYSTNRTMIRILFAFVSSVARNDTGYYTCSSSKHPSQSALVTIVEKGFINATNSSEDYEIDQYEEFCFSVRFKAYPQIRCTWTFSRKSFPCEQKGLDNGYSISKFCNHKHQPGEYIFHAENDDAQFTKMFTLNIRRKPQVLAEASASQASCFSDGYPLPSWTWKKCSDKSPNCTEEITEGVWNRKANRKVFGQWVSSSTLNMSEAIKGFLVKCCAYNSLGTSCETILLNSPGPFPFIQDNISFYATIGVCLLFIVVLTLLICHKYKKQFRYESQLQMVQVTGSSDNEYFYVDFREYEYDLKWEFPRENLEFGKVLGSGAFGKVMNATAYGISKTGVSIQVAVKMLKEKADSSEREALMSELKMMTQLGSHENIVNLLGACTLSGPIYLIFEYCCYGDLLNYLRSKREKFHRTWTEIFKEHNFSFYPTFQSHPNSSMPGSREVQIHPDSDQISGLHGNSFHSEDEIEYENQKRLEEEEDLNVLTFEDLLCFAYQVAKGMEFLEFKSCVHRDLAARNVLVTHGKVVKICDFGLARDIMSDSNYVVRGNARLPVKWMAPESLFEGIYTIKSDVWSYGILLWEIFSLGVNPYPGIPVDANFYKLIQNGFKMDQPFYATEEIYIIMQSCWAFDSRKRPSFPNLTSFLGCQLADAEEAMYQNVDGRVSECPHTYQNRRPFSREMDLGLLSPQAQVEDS

Lyn = Lyn (Homo sapiens, UniProt P07948); conditions: cited from earlier work
Chain of Lyn (P07948 whole entry, species assumed): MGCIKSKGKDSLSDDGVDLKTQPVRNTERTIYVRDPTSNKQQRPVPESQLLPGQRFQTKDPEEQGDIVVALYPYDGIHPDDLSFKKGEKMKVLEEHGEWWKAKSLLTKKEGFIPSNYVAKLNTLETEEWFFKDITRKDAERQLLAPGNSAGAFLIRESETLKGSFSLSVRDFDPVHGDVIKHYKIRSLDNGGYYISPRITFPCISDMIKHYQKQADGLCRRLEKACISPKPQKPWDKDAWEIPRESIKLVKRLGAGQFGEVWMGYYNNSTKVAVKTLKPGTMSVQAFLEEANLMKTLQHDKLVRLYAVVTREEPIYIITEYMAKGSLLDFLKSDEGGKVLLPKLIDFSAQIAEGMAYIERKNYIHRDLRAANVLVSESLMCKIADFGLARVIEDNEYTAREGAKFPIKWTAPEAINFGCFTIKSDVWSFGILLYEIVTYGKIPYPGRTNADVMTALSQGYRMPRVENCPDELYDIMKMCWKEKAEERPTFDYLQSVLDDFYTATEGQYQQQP

[6] = inhaled nebulized, 2 mg, IPD = immediate post dose

SMILES: COC(=O)c1ccc2c(c1)NC(=O)/C2=C(\Nc1ccc(N(C)C(=O)CN2CCN(C)CC2)cc1)c1ccccc1 [Nintedanib, methyl (3Z)-3-[[4-[methyl-[2-(4-methylpiperazin-1-yl)acetyl]amino]anilino]-phenylmethylidene]-2-oxo-1H-indole-6-carboxylate]
- fraction of administered nintedanib excreted in the urine [1]: About 80%
- pirfenidone parts per 1 part nintedanib (weight by weight) that stabilizes nintedanib in solution [2]: greater than 30 parts
- sodium chloride concentration at which nintedanib is physically unstable in solution [3]: ≥ 30 mM
- AUC ([4]; epithelial lining fluid (ELF), inhaled or intranasal, inhaled nebulized liquid 2 mg, read-out: ELF AUC): 3400 ng·h/mL
- Cmax ([4]; epithelial lining fluid (ELF), inhaled or intranasal, inhaled nebulized liquid 2 mg, read-out: ELF Cmax): 4660 ng/mL
- AUC ([4]; epithelial lining fluid (ELF), oral tablet 150 mg, read-out: ELF AUC): 1200 ng·h/mL
- Cmax ([4]; epithelial lining fluid (ELF), oral tablet 150 mg, read-out: ELF Cmax): 72.7 ng/mL
- Tmax ([4]; plasma, inhaled or intranasal, inhaled nebulized liquid 2 mg): 0.2 h
- AUC ([4]; plasma, inhaled or intranasal, inhaled nebulized liquid 2 mg, read-out: Plasma AUC): 4 ng·h/mL
- Cmax ([4]; plasma, inhaled or intranasal, inhaled nebulized liquid 2 mg, read-out: Plasma Cmax): 2.8 ng/mL
- Tmax ([4]; plasma, oral tablet 150 mg): 7.8 h
- AUC ([4]; plasma, oral tablet 150 mg, read-out: Plasma AUC): 163 ng·h/mL
- Cmax ([4]; plasma, oral tablet 150 mg, read-out: Plasma Cmax): 13.5 ng/mL
- adverse responses to oral dosing ([5]; 75 mg oral with glucose chaser): without any adverse responses observed
- Cmax ([5]; epithelial lining fluid (ELF), inhaled or intranasal, 0.06 mg/kg, inhaled nebulized liquid, 2 mg (0.06 mg/kg), read-out: ELF Cmax): 7380 ng/mL
- Cmax ([5]; epithelial lining fluid (ELF), inhaled or intranasal, 0.06 mg/kg, inhaled nebulized monotherapy, 2 mg (0.06 mg/kg), Table 19, read-out: ELF Cmax): 7880 ng/mL
- AUC ([5]; epithelial lining fluid (ELF), inhaled or intranasal, 2 mg, inhaled nebulized monotherapy, 2 mg, Table 19, read-out: ELF AUC): 7300 ng·h/mL
- AUC ([5]; epithelial lining fluid (ELF), inhaled or intranasal, 2 mg, inhaled nebulized, 2 mg, read-out: ELF AUC): 5400 ng·h/mL
- half-life ([5]; epithelial lining fluid (ELF), inhaled or intranasal, inhaled nebulized, 2 mg, read-out: ELF T1/2 (α) (converted)): 15 min
- Cmax ([5]; epithelial lining fluid (ELF), po, 2.14 mg/kg, oral, 75 mg (2.14 mg/kg), 3 mg/mL in water, read-out: ELF Cmax): 74 ng/mL
- AUC ([5]; epithelial lining fluid (ELF), po, 75 mg, oral, 75 mg, read-out: ELF AUC): 1200 ng·h/mL
- half-life ([5]; epithelial lining fluid (ELF), oral, 75 mg, read-out: ELF T1/2 (converted)): 600 min
- Tmax ([5]; epithelial lining fluid (ELF), oral, 75 mg, read-out: ELF Tmax): 10 h
- AUC ([5]; plasma, inhaled or intranasal, 2 mg, inhaled nebulized monotherapy, 2 mg, Table 19, read-out: Plasma AUC): 4 ng·h/mL
- Cmax ([5]; plasma, inhaled or intranasal, 2 mg, inhaled nebulized monotherapy, 2 mg, Table 19, read-out: Plasma Cmax): 3.9 ng/mL
- AUC ([5]; plasma, inhaled or intranasal, 2 mg, inhaled nebulized, 2 mg, read-out: Plasma AUC): 7 ng·h/mL
- Cmax ([5]; plasma, inhaled or intranasal, 2 mg, inhaled nebulized, 2 mg, read-out: Plasma Cmax): 5.9 ng/mL
- half-life ([5]; plasma, inhaled or intranasal, inhaled nebulized, 2 mg, read-out: Plasma T1/2 (α) (converted)): 15 min
- AUC ([5]; plasma, po, 75 mg, oral, 75 mg, read-out: Plasma AUC): 58 ng·h/mL
- Cmax ([5]; plasma, po, 75 mg, oral, 75 mg, read-out: Plasma Cmax): 3.6 ng/mL
- half-life ([5]; plasma, oral, 75 mg, read-out: Plasma T1/2 (converted)): 600 min
- Tmax ([5]; plasma, oral, 75 mg, read-out: Plasma Tmax): 9 h
- ELF Tmax [5, 6]: IPD^b
- Plasma Tmax [5, 6]: IPD^b
- inhibition (Src): inhibited
- inhibition (Flt-3): inhibited
- inhibition (Lyn): inhibited
